The results in this text go back to patent EP1724268A1, “COMPOUND HAVING TGF-BETA INHIBITORY ACTIVITY AND PHARMACEUTICAL COMPOSITION CONTAINING SAME” (KIRIN BEER KABUSHIKI KAISHA, priority 2004, dated 2005).

Read-outs that look alike come from different tables or passages of the source.

For the assay, the system named is TGFβ signal. Kind of assay: TGFβ signal inhibitory activity, (SBE)4-Luc reporter in A549 cells (Test Examples 1A and 1B). It counts as cell-based, human. The settings on record: Homo sapiens, A549, read-out: TGFβ inhibition rate, %. In outline: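 Stable A549 line carrying (SBE)4-Luc Smad3-binding reporter treated with compound plus TGFβ-1 (2 ng/ml) for 4 hr; luciferase read by chemiluminescence. Percent inhibition relative to TGFβ-only and untreated cells, tested at 3 µM and 10 µM, some also at 1 µM.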

[1] abbreviates: test compound 3 µM, TGFβ-1 2 ng/ml, 4 hr, Table 1A.
The mark [2] stands for this setting: test compound 10 µM, TGFβ-1 2 ng/ml, 4 hr, Table 1A.
Setting [3] is: 3 µM, compounds of Reference Examples (Test Example 1B).
The mark [4] stands for this setting: 10 µM, compounds of Reference Examples (Test Example 1B).
Where [5] appears, read: test compound 3 µM, Reference Examples, Table 1B.
The mark [6] stands for this setting: test compound 10 µM, Reference Examples, Table 1B.

Turning to `Cc1cc(Oc2ccnc3ccc(-c4ccccn4)cc23)c(-c2ccccn2)nc1C` [Compound 174, 5,6-Dimethyl-3-(6-pyridin-2-yl-quinolin-4-yloxy)-[2,2']bipyridine], under setting [1], the inhibition at 3 µM came to 89%. Further, under setting [2], the inhibition at 10 µM was 100%.

With `COc1cc2c(Oc3cc4cccnc4nc3C)ccnc2cc1OCC1CO1` (centres unmarked) [Compound r401], under setting [3], the inhibition at 3 µM was found to be 24%. Under setting [4], the inhibition at 10 µM was 76%.

As for `COc1cc2nccc(Oc3cc(C)c(C)nc3-c3cccc(C)n3)c2cc1OC` [Compound r271], the inhibition at 3 µM under setting [3] came out at 94%. In addition, the inhibition at 10 µM under setting [4] turned out to be 100%.

As for `CCCNC(=O)NCCOc1ccc2nccc(Oc3ccc(CC)nc3-c3ccccn3)c2c1` [Compound 189, 1-{2-[4-(6-Ethyl-[2,2']bipyridinyl-3-yloxy)-quinolin-6-yloxy]-ethyl}-3-propyl-urea], the inhibition at 3 µM under setting [1] is 97%. The inhibition at 10 µM under setting [2] is 99%.

As for `COc1cc2nccc(Oc3ccccc3C(=O)Nc3ccccc3)c2cc1OC` [r104], the inhibition at 3 µM under setting [5] worked out at 0%. Moreover, under setting [6], the inhibition at 10 µM was 58%.

For the compound `COc1cc2nccc(Oc3cc(C)c(C)nc3-c3ccccn3)c2cc1OCCO` [Compound 144, 2-[4-(5,6-Dimethyl-[2,2']bipyridinyl-3-yloxy)-7-methoxy-quinolin-6-yloxy]-ethanol], the inhibition at 3 µM under setting [1] came out at 93%. For the same compound, the inhibition at 10 µM under setting [2] turned out to be 100%.

Take `COc1cc2nccc(Oc3ccc(C)nc3-c3ccncc3)c2cc1OC` [Compound r263]: the inhibition at 3 µM under setting [3] stood at 82%. Further, the inhibition at 10 µM under setting [4] was determined as 99%.

With `COc1cc2nccc(Oc3ccccc3C(=O)OCC(C)C)c2cc1OC` [Compound r97], the inhibition at 3 µM under setting [5] came to 14%. Moreover, under setting [6], the inhibition at 10 µM was 92%.

As to `COc1cc2nccc(Oc3ccc(C)nc3-c3c(Cl)cccc3Cl)c2cc1OC` [Compound r253], the inhibition at 3 µM under setting [3] came to 68%. The inhibition at 10 µM under setting [4] was 97%.

`COc1cc2nccc(Oc3cc4cnccc4nc3-c3cccnc3)c2cc1OC` [Compound 95, 3-(6,7-Dimethoxy-quinolin-4-yloxy)-2-pyridin-3-yl-[1,6]naphthyridine]: the inhibition at 3 µM under setting [1] was found to be 40%. In addition, the inhibition at 10 µM under setting [2] turned out to be 85%.

Turning to `COC(=O)c1cc2c(Oc3cc4cccnc4nc3-c3ccccc3)ccnc2cc1Cl` [Compound 148, Methyl 7-chloro-4-(2-phenyl-[1,8]naphthyridin-3-yloxy)-quinoline-6-carboxylate], under setting [1], the inhibition at 3 µM amounted to 58%. In addition, under setting [2], the inhibition at 10 µM worked out at 98%.

For `Cc1ccc(Oc2ccnc3ccc(OCCC4CCCCC4)cc23)c(-c2ncccn2)n1` [Compound 216, 6-(2-Cyclohexylethoxy)-4-(6-methyl-2-pyrimidin-2-yl-pyridin-3-yloxy)-quinoline], the inhibition at 3 µM under setting [1] turned out to be 84%.

For the compound `CCC(=O)c1ccc(OCc2ccccc2)cc1Oc1ccnc2cc(OC)c(OC)cc12` [Compound r45], the inhibition at 3 µM under setting [5] was determined as 0%. Also, under setting [6], the inhibition at 10 µM worked out at 67%.

For the compound `C=CCON=C(C)c1cc(C)c(C)cc1Oc1ccnc2cc(OC)c(OC)cc12` [Compound r197], under setting [3], the inhibition at 3 µM is 40%. Further, the inhibition at 10 µM under setting [4] was found to be 88%.

Take `COc1ccc(Oc2ccnc3cc(OC(=O)N4CCOCC4)c(OC)cc23)c(C(C)=O)c1` [Compound r118, 4-(2-Acetyl-4-methoxyphenoxy)-6-methoxy-7-quinolyl 4-morpholine carboxylate]: the inhibition at 3 µM under setting [5] came out at 97%. Under setting [6], the inhibition at 10 µM came out at 100%.

As for `CCC(=O)c1cc(C(C)(C)C)ccc1Oc1ccnc2cc(OC)c(OC)cc12` [Compound r49], under setting [5], the inhibition at 3 µM was 0%. Further, the inhibition at 10 µM under setting [6] worked out at 62%.

Regarding `CCCOC(=O)c1cc2ccccc2cc1Oc1ccnc2cc(OCCCCl)c(OC)cc12` [Compound r325], the inhibition at 3 µM under setting [3] came to 19%. Also, the inhibition at 10 µM under setting [4] was 60%.

Turning to `COc1cc2nccc(Oc3ccc(C)nc3C(=O)c3cccc(C)n3)c2cc1OC` [r221], the inhibition at 3 µM under setting [3] stood at 71%. Moreover, the inhibition at 10 µM under setting [4] came out at 98%.

For `COc1cc2nccc(Oc3cc(C)c(C)nc3-c3cnccc3C)c2cc1OC` [r435], the inhibition at 3 µM under setting [3] stood at 29%. In addition, under setting [4], the inhibition at 10 µM came out at 79%.

Take `COc1cc2c(Oc3ccc(C)cc3C(=O)c3ccccc3)ccnc2cc1OCCCCN1CCOCC1` [Compound r149]: the inhibition at 3 µM under setting [5] is 96%. Besides, the inhibition at 10 µM under setting [6] is 100%.

Consider `CO/N=C(\C)c1cc(C)c(C)cc1Oc1ccnc2cc(OC)c(OC)cc12` [r196], for which the inhibition at 3 µM under setting [3] was 41%. For the same compound, the inhibition at 10 µM under setting [4] turned out to be 83%.

Consider `Cc1ccc(Oc2ccnc3ccc(OCCCN(CCO)c4ccccc4)cc23)c(-c2ncccn2)n1` [Compound 219, 2-({3-[4-(6-Methyl-2-pyrimidin-2-yl-pyridin-3-yloxy)-quinolin-6-yloxy]-propyl}-phenylamino)-ethanol], for which the inhibition at 3 µM under setting [1] is 96%. The inhibition at 10 µM under setting [2] was 100%.

Turning to `COc1cc2nccc(Oc3ccc4ncsc4c3-c3ccccc3)c2cc1OC` [Compound r295], the inhibition at 3 µM under setting [3] was 47%. Under setting [4], the inhibition at 10 µM came out at 96%.

For `Cc1cc(Oc2ccnc3ccc(OCCO)cc23)c(-c2ccccn2)nc1C` [Compound 142, 2-[4-(5,6-Dimethyl-[2,2']bipyridinyl-3-yloxy)-quinolin-6-yloxy]-ethanol], the inhibition at 3 µM under setting [1] is 98%. Under setting [2], the inhibition at 10 µM came out at 100%.

`CCOC(=O)c1ccc(C)cc1Oc1ccnc2cc(OC)c(OC)cc12` [Compound r82]: the inhibition at 3 µM under setting [5] is 90%. In addition, the inhibition at 10 µM under setting [6] turned out to be 99%.

Regarding `COc1cc2nccc(Oc3ccc(C)nc3C(OC(C)=O)c3cccc(C)n3)c2cc1OC` (centres unmarked) [Compound r219], under setting [3], the inhibition at 3 µM is 20%. Besides, under setting [4], the inhibition at 10 µM amounted to 67%.

Consider `c1ccc(-c2nc3ncccc3cc2Oc2ncnc3ccsc23)cc1` [Compound 75, 2-Phenyl-3-(thieno[3,2-d]pyrimidin-4-yloxy)-[1,8]naphthyridine], for which the inhibition at 3 µM under setting [1] amounted to 84%. Further, the inhibition at 10 µM under setting [2] stood at 98%.

For `COc1ccc(Oc2ccnc3cc(OC)c(OC)cc23)c(/C=C/c2ccccc2)c1` [Compound r7, 6,7-Dimethoxy-4-{4-methoxy-2-[(E)-2-phenyl-1-ethenyl]phenoxy}quinoline], the inhibition at 3 µM under setting [5] turned out to be 13%. For the same compound, under setting [6], the inhibition at 10 µM amounted to 54%.

With `COc1ccc(Oc2ccnc3cc(OCCCCl)c(OC)cc23)c(C(C)=O)c1` [Compound r121], the inhibition at 3 µM under setting [5] was 100%. In addition, under setting [6], the inhibition at 10 µM stood at 100%.

In the case of `COc1cc2nccc(Oc3cc(C)c(C)cc3/C(C)=N/OCc3ccccc3)c2cc1OC` [r198], the inhibition at 3 µM under setting [3] turned out to be 32%. The inhibition at 10 µM under setting [4] amounted to 80%.

For the compound `COc1cc2c(Oc3cc4cccnc4nc3C)ccnc2cc1OCCN1CCOCC1` [Compound r441], the inhibition at 3 µM under setting [3] was 97%. Also, under setting [4], the inhibition at 10 µM is 100%.

Turning to `COc1cc2c(Oc3cc4ccccc4nc3C(C)=O)ccnc2cc1OCCN1CCOCC1` [Compound r391], under setting [3], the inhibition at 3 µM came to 99%. Under setting [4], the inhibition at 10 µM was found to be 100%.

Turning to `Cc1cc(Oc2ccnc3cc(OCCO)ccc23)c(-c2ccccn2)nc1C` [Compound 143, 2-[4-(5,6-Dimethyl-[2,2']bipyridinyl-3-ylox)-quinolin-7-yloxy]-ethanol], the inhibition at 3 µM under setting [1] turned out to be 100%. Further, the inhibition at 10 µM under setting [2] is 100%.

Usually inhibition stands for the relative decrease from the control value, in per cent.
